Measured values taken from patent publication US11548855B2, “Pyrazole amide compound and application thereof, and fungicide” (Shandong United Pesticide Industry Co. Ltd., priority 2017, dated 2023).

Tests used:
[1] = tested on: wheat powdery mildew; experiment: Field trial, wheat powdery mildew; assay type: in vivo, Erysiphe graminis; settings: 100 mg/L, sprayed once
Protocol: II. The Wheat Powdery Mildew Test Method:
(§1) Spray method: Stein and leaf spraying (Applicator: Xinkangda lithium battery electric sprayer).
Test crops: wheat (cultivars: Liaochun 10)
(§2) The test was carried out in Shenyang, the test field was loam with rich organic matters and normal management of fertilizer and water, and no other pesticide was applied during the test.
(§3) The arrangement of the test plot was random block permutation; the area of the test plot: 15 m^2; repeat times: 3 times; spray time and frequency: Sep. 17, 2018, once. Spray dosage: each treatment was repeated 3 times, the total water consumption was 8 L. No other pesticide was applied during the test.
The incidence of disease spots in each plot was investigated by diagonal selecting 4 samples/plot and 20 plants/samples, and the first leaf below the flag leaf of each plant was investigated.
(§4) The grading standard of crop disease was as follows:
(§5) Grade 0: no leaf-spot area;
(§6) Grade 1: the ratio of leaf-spot area to leaf area is less than 5%;
(§7) Grade 3: the ratio of leaf-spot area to leaf area is between 6-25%;
(§8) Grade 5: the ratio of leaf-spot area to leaf area is between 26-50%;
(§9) Grade 7: the ratio of leaf-spot area to leaf area is between 51-75%;
(§10) Grade 9: the ratio of leaf-spot area to leaf area is between 76-100%;
(§11) According to the relevant content of the “Guidelines for the field efficacy trials of pesticides of the People's Republic of China (PRC)”, the disease index was calculated according to the grading standard, and the control effect in a unit of % was calculated based on the disease index, and the test data of significance analysis was performed by using DPS evaluation system (DMRT).

[2] = tested on: soybean rust (Phakopsora pacchyrhizi Sydow); experiment: Greenhouse pot test, soybean rust; assay type: in vivo
Protocol: (§12) Test method: each of the test compounds in Table 1 was dispensed to 5 wt % emulsifiable concentrate (hereinafter referred to as 5% EC). The greenhouse pot test was used in each experiment, and the effective concentrations of each compound were illustrated in Table 1.
Soybean rust: two-leaf stage potted soybean seedling with uniform growth was selected and made foliar spray treatment with 5% EC, the blank control sprayed with clean water was additionally arranged, three replicates were carried out. After 24 h, the leaves of the host plants were inoculated with sporangial suspensions of the fungi soybean rust (Phakopsora pacchyrhizi Sydow), the plants were stored in humidity chamber (temperature 20-25° C., relative humidity>95%) and then transferred to greenhouse (25±1° C.) 8-16 h after infection. After 7 days, the screening results were investigated according to the disease incidence condition of blank control.
(§13) The investigation method: “Guidelines for the field efficacy trials of pesticides” was adopted as the grading standard, and the control effect in a unit of % was calculated based on the disease index. Disease index=Σ(number of diseased leaves at each grade×relative grade value)×100/(total number of leaves×9); Control effect (%)=(disease index of control−disease index of treated)×100/disease index of control;
(§14) The compounds provided by the present disclosure and some control compounds were tested by the same methods in the Test example 1, except that the effective concentrations of the compounds in this Test example are shown in Table 2.

[3] = tested on: wheat powdery mildew (Erysiphe graminis); experiment: Greenhouse pot test, wheat powdery mildew; assay type: in vivo
Description: as §12
Wheat powdery mildew: two-leaf stage potted wheat seedling with uniform growth was selected and made foliar spray treatment with 5% EC, the blank control sprayed with clean water was additionally arranged, three replicates were carried out. After 24 h, the leaves of the host plants were inoculated by shake-down method with sporangial suspensions of the fungi wheat powdery mildew (Erysiphe graminis), the plants were stored in a greenhouse (25±1° C.). After 7 days, the screening results were investigated according to the disease incidence condition of blank control.
as §13, §14

[4] = tested on: cucumber powdery mildew; experiment: Greenhouse pot test, cucumber powdery mildew; assay type: in vivo; settings: greenhouse pot
Protocol: as §12
Cucumber powdery mildew: cucumber seedling in a true leaf period with uniform growth was selected, and dried in the shade for 24 h after spray treatment. Fresh cucumber powdery mildew spores on the cucumber leaves were collected and washed, and filtered through a double gauze to prepare a spores suspension with concentration of about 100,000/mL, then spray inoculation was applied. The test materials inoculated were moved into a greenhouse (lighting 21-23° C.), after 8 days, the grading investigation was carried out according to the disease incidence condition of blank control, and the control effect in a unit of % was calculated according to disease index.
as §13, §14

[5] = tested on: soybean rust; experiment: Field trial, soybean rust; assay type: in vivo, Phakopsora pacchyrhizi Sydow; settings: sprayed 2 times
Protocol: III. The Soybean Rust Test Method:
as §1
Test crops: soybean (cultivars: Glycine max(L) Merr)
as §2
as §3, with “25” for “15”, “2 times on Aug. 11, 2018 and Aug. 21, 2018 respectively.” for “Sep. 17, 2018, once.”, “test. […] 15-20 days after the second spray treatment, the control effect was investigated.” for “test.”
The incidence of disease spots in each plot was investigated by diagonal selecting 5 samples/plot and 20 plants/samples, 10 leaves/plant was surveyed.
as §4, §5, §6, §7, §8, §9, §10, §11

[6] = tested on: wheat powdery mildew; settings: cited from earlier work
[7] = tested on: wheat powdery mildew; settings: cited from earlier work; remark: listed apart in the source
[8] = tested on: corn rust (Puccinia sorghi); experiment: Greenhouse pot test, corn rust; assay type: in vivo
Protocol: as §12
Corn rust: two-three leaf stage potted corn seedling with uniform growth was selected and made foliar spray treatment with 5% EC, the blank control sprayed with clean water was additionally arranged, three replicates were carried out. After 24 h, the leaves of the host plants were inoculated with sporangial suspensions of the fungi corn rust (Puccinia sorghi), the plants were stored in humidity chamber (temperature: lighting 25° C., dark 20° C., relative humidity 95-100%) and then transferred to greenhouse (25±1° C.) 24 h after infection. After 7 days, the screening results were investigated according to the disease incidence condition of blank control.
as §13, §14

[9] = tested on: rice sheath blight fungi (Rhizoctonia solami); experiment: Greenhouse pot test, rice sheath blight; assay type: in vivo
Protocol: as §14
In addition, the test method for rice sheath blight as following steps:
The potted rice seedling with uniform growth was selected, and dried in the shade for 24 h after spray treatment, then inoculated 3 blocks of 0.25 cm^2 rice sheath blight fungi (Rhizoctonia solami) at the base of seedling by clamp inoculation bacterium block method. The test materials inoculated were moved into greenhouse (temperature: lighting 28° C., dark 25° C., relative humidity 95%), after 7 days, investigate 5 leaves of per block treatment, the grading investigation was carried out according to the disease incidence condition of sheaths and leaves of rice, “Guidelines for the field efficacy trials of pesticides” was adopted as the grading standard, the disease index was calculated according to the grading standard, and the control effect in a unit of % was calculated according to disease index.

[10] = tested on: cucumber powdery mildew; experiment: Field trial, cucumber powdery mildew; assay type: in vivo; settings: 100 mg/L, sprayed twice
Protocol: I. Cucumber Powdery Mildew Test Method:
Spray method: Stein and leaf spray (Applicator: Xinkangda lithium battery electric sprayer).
Test crop: cucumber (cultivars: Tianjiao7)
as §2
as §3, with “frequency: period between” for “frequency:”, “28, 2018 and Oct. 11,” for “17,”, “twice.” for “once.”, “test. […] 15-20 days after the second treatment, the incidence of disease spots in each plot was investigated.” for “test.”
The incidence of disease spots in each plot was investigated by randomly selecting 4 samples/plot and 2 plants/samples, all leaves/plant, the incidence of the whole plant was recorded by counting the number of disease leaves and determining the incidence grade.
Grading standard (in units of leaves):
as §5, §6
Grade 3: the ratio of leaf-spot area to leaf area is between 6-10%;
Grade 5: the ratio of leaf-spot area to leaf area is between 11-20%;
Grade 7: the ratio of leaf-spot area to leaf area is between 21-40%;
Grade 9: the ratio of leaf-spot area to leaf area is more than 40%;
as §11

OC(Cc1ccccc1Cl)(Cn1nc[nH]c1=S)C1(Cl)CC1 (stereo not drawn) [Prothioconazole]
Control effect (%) Wheat powdery mildew [1]: 93% | pest or weed control at 0.5 µg/mL ([2]; Glycine max, 168 h, 0.5 mg/L, read-out: Control effect (%) Soybean rust): 95% | pest or weed control at 1 µg/mL ([2]; Glycine max, 168 h, 1 mg/L, read-out: Control effect (%) Soybean rust): 100% | pest or weed control at 2 µg/mL ([2]; Glycine max, 168 h, 2 mg/L, read-out: Control effect (%) Soybean rust): 100% | pest or weed control at 4 µg/mL ([2]; Glycine max, 168 h, 4 mg/L, read-out: Control effect (%) Soybean rust): 100% | pest or weed control at 1 µg/mL ([3]; Blumeria graminis, 168 h, 1 mg/L, read-out: Control effect (%) Wheat powdery mildew): 30% | pest or weed control at 2 µg/mL ([3]; Blumeria graminis, 168 h, 2 mg/L, read-out: Control effect (%) Wheat powdery mildew): 50% | pest or weed control at 4 µg/mL ([3]; Blumeria graminis, 168 h, 4 mg/L, read-out: Control effect (%) Wheat powdery mildew): 70% | pest or weed control at 1 µg/mL ([4]; Cucumis sativus, 192 h, 1 mg/L, read-out: Control effect (%) Cucumber powdery mildew): 75% | pest or weed control at 2 µg/mL ([4]; Cucumis sativus, 192 h, 2 mg/L, read-out: Control effect (%) Cucumber powdery mildew): 80% | pest or weed control at 4 µg/mL ([4]; Cucumis sativus, 192 h, 4 mg/L, read-out: Control effect (%) Cucumber powdery mildew): 90% | pest or weed control at 6.25 µg/mL ([4]; Cucumis sativus, 192 h, 6.25 mg/L, read-out: Control effect (%) Cucumber powdery mildew): 85% | pest or weed control at 25 µg/mL ([4]; Cucumis sativus, 192 h, 25 mg/L, read-out: Control effect (%) Cucumber powdery mildew): 98% | pest or weed control at 100 µg/mL ([4]; Cucumis sativus, 192 h, 100 mg/L, read-out: Control effect (%) Cucumber powdery mildew): 100% | Control effect (%) ([5]; dosage 50 mg/L): 91.15%

CNC(=O)/C(=N/OC)c1ccccc1CO/N=C(C)/C=C/c1c(Cl)cccc1Cl [fenaminstrobin]
activity against wheat powdery mildew in greenhouse pot test [6]: extremely high activity | control effect in field test [7]: worse

Cn1cc(C(=O)Nc2cccc3c2[C@@H]2CC[C@H]3C2=C(Cl)Cl)c(C(F)F)n1 (racemic) [Benzovindiflupyr]
Control effect (%) Wheat powdery mildew [1]: 95% | Control effect (%) Soybean rust ([2]; 0.5 mg/L): 95% | Control effect (%) Soybean rust ([2]; 1 mg/L): 98% | Control effect (%) Soybean rust ([2]; 1.5625 mg/L): 100% | Control effect (%) Soybean rust ([2]; 3.1250 mg/L): 100% | Control effect (%) Wheat powdery mildew ([3]; 1.5625 mg/L): 50% | Control effect (%) Wheat powdery mildew ([3]; 3.1250 mg/L): 70% | Control effect (%) Corn rust ([8]; 1.5625 mg/L): 95% | Control effect (%) Corn rust ([8]; 3.1250 mg/L): 98% | Control effect (%) Cucumber powdery mildew ([4]; 1.5625 mg/L): 20% | Control effect (%) Cucumber powdery mildew ([4]; 6.25 mg/L): 80% | Control effect (%) Cucumber powdery mildew ([4]; 25 mg/L): 100% | Control effect (%) Cucumber powdery mildew ([4]; 100 mg/L): 100% | Control effect (%) ([5]; dosage 50 mg/L): 91.46% | Control effect (%) ([5]; dosage 75 mg/L): 94.51% | Control effect (%) ([5]; dosage 100 mg/L): 97.15% | Control effect (%) Rice sheath blight ([9]; 0.5 mg/L): 30% | Control effect (%) Rice sheath blight ([9]; 1 mg/L): 40% | Control effect (%) Rice sheath blight ([9]; 1.5625 mg/L): 55% | Control effect (%) Rice sheath blight ([9]; 3.1250 mg/L): 65%

CON(C(=O)c1cn(C)nc1C(F)F)C(C)Cc1c(Cl)cc(Cl)cc1Cl (stereo not drawn) [Pydiflumetofen]
Control effect (%) Wheat powdery mildew [1]: 91.0% | Control effect (%) Cucumber powdery mildew [10]: 86.0%

Cn1cc(C(=O)Nc2ccccc2Oc2ccc(C(F)(F)F)cc2I)c(C(F)F)n1 [Compound 4]
pest or weed control at 1.5625 µg/mL ([2]; Glycine max, 168 h, 1.5625 mg/L, read-out: Control effect (%) Soybean rust): 98% | pest or weed control at 3.125 µg/mL ([2]; Glycine max, 168 h, 3.1250 mg/L, read-out: Control effect (%) Soybean rust): 100% | pest or weed control at 6.25 µg/mL ([2]; Glycine max, 168 h, 6.25 mg/L, read-out: Control effect (%) Soybean rust): 100% | pest or weed control at 25 µg/mL ([2]; Glycine max, 168 h, 25 mg/L, read-out: Control effect (%) Soybean rust): 100% | pest or weed control at 100 µg/mL ([2]; Glycine max, 168 h, 100 mg/L, read-out: Control effect (%) Soybean rust): 100% | pest or weed control at 1.5625 µg/mL ([3]; Blumeria graminis, 168 h, 1.5625 mg/L, read-out: Control effect (%) Wheat powdery mildew): 30% | pest or weed control at 3.125 µg/mL ([3]; Blumeria graminis, 168 h, 3.1250 mg/L, read-out: Control effect (%) Wheat powdery mildew): 70% | pest or weed control at 6.25 µg/mL ([3]; Blumeria graminis, 168 h, 6.25 mg/L, read-out: Control effect (%) Wheat powdery mildew): 10% | pest or weed control at 25 µg/mL ([3]; Blumeria graminis, 168 h, 25 mg/L, read-out: Control effect (%) Wheat powdery mildew): 25% | pest or weed control at 100 µg/mL ([3]; Blumeria graminis, 168 h, 100 mg/L, read-out: Control effect (%) Wheat powdery mildew): 60% | pest or weed control at 1.5625 µg/mL ([8]; Puccinia sorghi, 168 h, 1.5625 mg/L, read-out: Control effect (%) Corn rust): 50% | pest or weed control at 3.125 µg/mL ([8]; Puccinia sorghi, 168 h, 3.1250 mg/L, read-out: Control effect (%) Corn rust): 90% | pest or weed control at 6.25 µg/mL ([8]; Puccinia sorghi, 168 h, 6.25 mg/L, read-out: Control effect (%) Corn rust): 98% | pest or weed control at 25 µg/mL ([8]; Puccinia sorghi, 168 h, 25 mg/L, read-out: Control effect (%) Corn rust): 100% | pest or weed control at 100 µg/mL ([8]; Puccinia sorghi, 168 h, 100 mg/L, read-out: Control effect (%) Corn rust): 100% | Control effect (%) ([5]; dosage 50 mg/L): 80.14% | Control effect (%) ([5]; dosage 75 mg/L): 85.62% | Control effect (%) ([5]; dosage 100 mg/L): 93.11%
